From PMC4505863 (ACS Chemical Neuroscience, 2014)

Legend:
5-HT1A = target: T1, 5-HT1A (Homo sapiens, UniProt P08908); test: PDSP screening affinity 5-HT1A; format: binding; details: 5-HT1A affinity
T1 sequence (P08908 1-422): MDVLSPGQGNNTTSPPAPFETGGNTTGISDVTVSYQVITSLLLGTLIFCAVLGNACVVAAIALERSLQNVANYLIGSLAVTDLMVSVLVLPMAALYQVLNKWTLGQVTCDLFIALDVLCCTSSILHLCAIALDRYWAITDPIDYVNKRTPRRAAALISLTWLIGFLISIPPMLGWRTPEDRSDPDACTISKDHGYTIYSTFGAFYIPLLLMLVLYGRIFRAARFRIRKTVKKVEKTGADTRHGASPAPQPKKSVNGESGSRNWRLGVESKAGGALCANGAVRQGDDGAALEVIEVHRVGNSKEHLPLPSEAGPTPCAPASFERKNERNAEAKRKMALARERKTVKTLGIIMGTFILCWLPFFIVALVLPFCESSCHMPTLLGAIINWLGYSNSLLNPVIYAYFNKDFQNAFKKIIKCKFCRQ

r5-HT2A = r5-HT2A (Rattus norvegicus, UniProt P14842); test: Ca2+ mobilization assay; format: cell-based; details: for EC50: r5-HT2A EC50, Ca2+ mobilization; for Emax: read-out: r5-HT2A Emax, percentage of the maximum response to 5-HT
Sequence of r5-HT2A (P14842 whole entry): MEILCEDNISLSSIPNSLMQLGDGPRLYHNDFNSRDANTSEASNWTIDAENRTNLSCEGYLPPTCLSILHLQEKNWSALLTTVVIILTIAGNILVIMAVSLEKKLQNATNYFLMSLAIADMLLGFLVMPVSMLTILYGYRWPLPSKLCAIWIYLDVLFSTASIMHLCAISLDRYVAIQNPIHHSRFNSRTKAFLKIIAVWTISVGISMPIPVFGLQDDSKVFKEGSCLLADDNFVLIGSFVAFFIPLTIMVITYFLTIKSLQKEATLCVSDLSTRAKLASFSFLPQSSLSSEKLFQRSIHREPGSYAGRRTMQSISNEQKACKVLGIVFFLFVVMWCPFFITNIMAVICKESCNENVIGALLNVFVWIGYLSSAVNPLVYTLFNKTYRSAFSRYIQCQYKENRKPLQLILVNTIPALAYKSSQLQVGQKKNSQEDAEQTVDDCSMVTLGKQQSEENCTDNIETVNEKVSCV

5-HT2A receptor [1] = target: T2, 5-HT2A receptor (Homo sapiens, UniProt P28223); test: h5-HT2A affinity, agonist radioligand [125I]DOI; format: binding
T2 sequence (P28223 whole entry): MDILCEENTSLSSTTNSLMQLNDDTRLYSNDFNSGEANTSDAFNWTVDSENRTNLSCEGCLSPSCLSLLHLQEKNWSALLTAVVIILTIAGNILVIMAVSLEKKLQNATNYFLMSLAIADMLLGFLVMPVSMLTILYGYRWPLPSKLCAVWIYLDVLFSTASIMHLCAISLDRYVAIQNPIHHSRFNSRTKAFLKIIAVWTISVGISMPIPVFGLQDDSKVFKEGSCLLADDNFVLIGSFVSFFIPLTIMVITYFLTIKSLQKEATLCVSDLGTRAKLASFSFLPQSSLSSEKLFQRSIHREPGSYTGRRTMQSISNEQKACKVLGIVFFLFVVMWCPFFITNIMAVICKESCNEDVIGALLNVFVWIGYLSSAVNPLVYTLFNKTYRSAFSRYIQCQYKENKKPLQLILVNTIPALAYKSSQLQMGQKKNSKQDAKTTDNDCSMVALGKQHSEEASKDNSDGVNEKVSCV

human 5-HT2C receptor [2] = target: T3, human 5-HT2C receptor (Homo sapiens, UniProt P28335); test: h5-HT2C affinity, antagonist radioligand [3H]mesulergine; format: binding
T3 sequence (P28335 33-458): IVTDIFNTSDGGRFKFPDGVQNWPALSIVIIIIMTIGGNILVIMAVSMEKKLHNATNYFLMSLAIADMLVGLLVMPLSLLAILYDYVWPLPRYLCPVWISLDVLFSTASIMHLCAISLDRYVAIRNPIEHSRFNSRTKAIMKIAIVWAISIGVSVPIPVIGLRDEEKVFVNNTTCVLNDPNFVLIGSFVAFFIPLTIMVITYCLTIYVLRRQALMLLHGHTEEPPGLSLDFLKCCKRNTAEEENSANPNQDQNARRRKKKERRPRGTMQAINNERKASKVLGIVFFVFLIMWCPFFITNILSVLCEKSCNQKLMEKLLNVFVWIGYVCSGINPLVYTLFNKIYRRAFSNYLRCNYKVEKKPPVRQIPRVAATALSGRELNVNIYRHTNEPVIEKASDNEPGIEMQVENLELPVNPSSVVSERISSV

5-HT7 = 5-HT7 (Homo sapiens, UniProt P34969); test: PDSP screening affinity 5-HT7; format: binding
Sequence of 5-HT7 (P34969 whole entry): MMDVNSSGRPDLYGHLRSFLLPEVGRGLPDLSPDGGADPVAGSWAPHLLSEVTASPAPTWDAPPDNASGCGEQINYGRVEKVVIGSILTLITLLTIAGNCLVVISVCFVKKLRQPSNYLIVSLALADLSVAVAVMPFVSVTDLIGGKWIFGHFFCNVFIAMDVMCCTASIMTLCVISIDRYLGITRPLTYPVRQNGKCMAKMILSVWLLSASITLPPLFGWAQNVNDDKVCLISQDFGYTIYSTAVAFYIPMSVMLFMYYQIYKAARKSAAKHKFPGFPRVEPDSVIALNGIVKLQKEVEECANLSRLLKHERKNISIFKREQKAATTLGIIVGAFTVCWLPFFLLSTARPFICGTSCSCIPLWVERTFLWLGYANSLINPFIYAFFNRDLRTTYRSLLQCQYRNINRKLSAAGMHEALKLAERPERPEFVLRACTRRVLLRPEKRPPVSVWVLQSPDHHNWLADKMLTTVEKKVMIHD

5-HT6 = 5-HT6 (Homo sapiens, UniProt P50406); test: PDSP screening affinity 5-HT6; format: binding; details: 5-HT6 affinity
Sequence of 5-HT6 (P50406 whole entry): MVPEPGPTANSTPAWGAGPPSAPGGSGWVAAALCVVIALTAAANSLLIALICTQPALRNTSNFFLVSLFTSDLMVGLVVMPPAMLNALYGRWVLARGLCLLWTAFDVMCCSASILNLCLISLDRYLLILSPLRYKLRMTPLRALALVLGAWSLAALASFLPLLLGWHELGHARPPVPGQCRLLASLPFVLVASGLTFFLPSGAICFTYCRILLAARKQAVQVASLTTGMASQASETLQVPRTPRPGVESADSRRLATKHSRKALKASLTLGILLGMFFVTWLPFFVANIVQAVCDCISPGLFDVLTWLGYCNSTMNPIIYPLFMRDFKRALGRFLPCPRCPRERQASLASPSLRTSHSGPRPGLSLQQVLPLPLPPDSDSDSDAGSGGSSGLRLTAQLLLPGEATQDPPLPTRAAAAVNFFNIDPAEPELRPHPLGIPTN

r5-HT2C = target: T4, r5-HT2C (Rattus norvegicus, UniProt P08909); test: Ca2+ mobilization assay; format: cell-based; details: for Emax: read-out: r5-HT2C Emax
T4 sequence (P08909 33-460): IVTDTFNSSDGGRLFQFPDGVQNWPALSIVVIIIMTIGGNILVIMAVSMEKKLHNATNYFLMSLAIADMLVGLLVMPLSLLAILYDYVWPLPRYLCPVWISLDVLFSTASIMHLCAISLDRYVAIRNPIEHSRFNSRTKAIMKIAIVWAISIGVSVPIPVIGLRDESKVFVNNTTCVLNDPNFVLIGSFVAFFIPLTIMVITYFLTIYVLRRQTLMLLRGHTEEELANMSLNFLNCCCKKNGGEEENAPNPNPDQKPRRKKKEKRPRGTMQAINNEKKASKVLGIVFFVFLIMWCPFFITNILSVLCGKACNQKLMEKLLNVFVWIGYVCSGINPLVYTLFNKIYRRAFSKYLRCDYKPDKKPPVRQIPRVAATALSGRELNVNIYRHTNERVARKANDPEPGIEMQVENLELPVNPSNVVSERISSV

5-HT1D = 5-HT1D (Homo sapiens, UniProt P28221); test: PDSP screening affinity 5-HT1D; format: binding
Sequence of 5-HT1D (P28221 whole entry): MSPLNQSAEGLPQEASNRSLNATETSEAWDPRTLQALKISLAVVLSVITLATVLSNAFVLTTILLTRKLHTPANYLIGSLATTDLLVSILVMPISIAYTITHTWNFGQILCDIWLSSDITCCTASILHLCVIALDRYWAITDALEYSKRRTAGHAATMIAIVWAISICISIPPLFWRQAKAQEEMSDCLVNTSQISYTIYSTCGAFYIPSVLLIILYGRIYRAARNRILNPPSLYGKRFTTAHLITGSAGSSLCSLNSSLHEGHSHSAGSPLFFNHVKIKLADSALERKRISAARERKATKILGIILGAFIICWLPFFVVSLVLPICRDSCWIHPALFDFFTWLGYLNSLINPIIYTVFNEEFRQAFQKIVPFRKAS

5-ht1e = 5-ht1e (Homo sapiens, UniProt P28566); test: PDSP screening affinity 5-ht1e; format: binding
Sequence of 5-ht1e (P28566 whole entry): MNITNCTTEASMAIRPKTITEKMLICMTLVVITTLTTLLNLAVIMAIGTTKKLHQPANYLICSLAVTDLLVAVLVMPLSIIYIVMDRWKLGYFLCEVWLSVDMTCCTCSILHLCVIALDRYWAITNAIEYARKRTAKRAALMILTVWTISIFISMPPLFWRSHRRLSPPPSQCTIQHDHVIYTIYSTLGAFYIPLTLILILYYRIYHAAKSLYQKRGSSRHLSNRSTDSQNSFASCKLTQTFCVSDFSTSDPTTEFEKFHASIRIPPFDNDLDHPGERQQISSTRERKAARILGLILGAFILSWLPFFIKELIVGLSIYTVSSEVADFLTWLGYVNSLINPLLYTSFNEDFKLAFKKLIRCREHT

h5-HT2B = h5-HT2B (Homo sapiens, UniProt P41595); test: Ca2+ mobilization assay; format: cell-based; details: for Emax: HEK293, read-out: h5-HT2B Emax
Sequence of h5-HT2B (P41595 whole entry): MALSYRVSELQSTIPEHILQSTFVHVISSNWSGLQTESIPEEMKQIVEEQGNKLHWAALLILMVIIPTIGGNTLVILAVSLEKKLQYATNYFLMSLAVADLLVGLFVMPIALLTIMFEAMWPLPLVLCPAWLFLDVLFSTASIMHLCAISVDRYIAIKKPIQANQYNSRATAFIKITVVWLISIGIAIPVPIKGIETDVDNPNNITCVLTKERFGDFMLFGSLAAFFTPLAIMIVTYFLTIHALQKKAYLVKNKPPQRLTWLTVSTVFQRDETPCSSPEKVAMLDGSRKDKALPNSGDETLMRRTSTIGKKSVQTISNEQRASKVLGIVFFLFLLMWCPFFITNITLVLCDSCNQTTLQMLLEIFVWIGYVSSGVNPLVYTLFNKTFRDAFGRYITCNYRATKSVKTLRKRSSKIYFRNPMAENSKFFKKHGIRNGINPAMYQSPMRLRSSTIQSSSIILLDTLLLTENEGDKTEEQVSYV

h5-HT2C = target: T5, h5-HT2C (Homo sapiens, UniProt P28335); test: Ca2+ mobilization assay; format: cell-based; details: for Emax: HEK293, read-out: h5HT2C Emax; for EC50: h5HT2C EC50, Ca2+ mobilization
T5 sequence (P28335 33-458): T3 sequence (P28335 33-458)

5-ht5a = 5-ht5a (Homo sapiens, UniProt P47898); test: PDSP screening affinity 5-ht5a; format: binding; details: 5-ht5a affinity
Sequence of 5-ht5a (P47898 whole entry): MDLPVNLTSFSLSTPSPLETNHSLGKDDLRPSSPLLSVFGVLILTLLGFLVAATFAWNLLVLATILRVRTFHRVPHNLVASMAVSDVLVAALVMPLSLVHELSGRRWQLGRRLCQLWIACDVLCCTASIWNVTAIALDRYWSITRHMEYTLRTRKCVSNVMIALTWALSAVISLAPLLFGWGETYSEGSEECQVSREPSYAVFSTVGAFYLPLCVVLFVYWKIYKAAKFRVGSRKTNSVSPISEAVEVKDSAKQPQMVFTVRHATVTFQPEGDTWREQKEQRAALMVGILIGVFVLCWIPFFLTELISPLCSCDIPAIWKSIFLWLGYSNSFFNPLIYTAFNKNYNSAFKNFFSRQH

Male C57BL/6J mice = test: Mouse head twitch response
5-HT1B = 5-HT1B (Homo sapiens, UniProt P28222); test: PDSP screening affinity 5-HT1B; format: binding; details: 5-HT1B affinity
Sequence of 5-HT1B (P28222 whole entry): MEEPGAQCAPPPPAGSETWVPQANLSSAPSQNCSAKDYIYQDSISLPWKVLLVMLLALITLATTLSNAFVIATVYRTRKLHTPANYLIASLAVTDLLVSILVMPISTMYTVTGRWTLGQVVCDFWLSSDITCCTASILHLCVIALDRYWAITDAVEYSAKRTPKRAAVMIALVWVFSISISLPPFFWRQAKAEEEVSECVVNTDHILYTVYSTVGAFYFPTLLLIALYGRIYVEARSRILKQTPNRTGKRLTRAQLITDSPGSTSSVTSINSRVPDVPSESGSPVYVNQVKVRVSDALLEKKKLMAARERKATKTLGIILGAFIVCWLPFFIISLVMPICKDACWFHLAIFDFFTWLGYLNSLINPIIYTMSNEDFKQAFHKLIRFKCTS

h5-HT2A = h5-HT2A (Homo sapiens, UniProt P28223); test: Ca2+ mobilization assay; format: cell-based; details: for Emax: HEK293, read-out: h5-HT2A Emax, percentage of the maximum response to 5-HT
Sequence of h5-HT2A (P28223 whole entry): as the sequence (P28223 whole entry) above

5-HT2A receptor [3] = target: T2, 5-HT2A receptor; test: h5-HT2A affinity, antagonist radioligand [3H]ketanserin; format: binding
human 5-HT2C receptor [4] = target: T3, human 5-HT2C receptor; test: h5-HT2C affinity, agonist radioligand [125I]DOI; format: binding
5-HT2B = 5-HT2B (Homo sapiens, UniProt P41595); test: PDSP screening affinity 5-HT2B; format: binding
Sequence of 5-HT2B (P41595 whole entry): as the sequence (P41595 whole entry) above

5-HT3 = target: T6, 5-HT3 (Homo sapiens, UniProt P46098); test: PDSP screening affinity 5-HT3; format: binding
T6 sequence (P46098 24-478): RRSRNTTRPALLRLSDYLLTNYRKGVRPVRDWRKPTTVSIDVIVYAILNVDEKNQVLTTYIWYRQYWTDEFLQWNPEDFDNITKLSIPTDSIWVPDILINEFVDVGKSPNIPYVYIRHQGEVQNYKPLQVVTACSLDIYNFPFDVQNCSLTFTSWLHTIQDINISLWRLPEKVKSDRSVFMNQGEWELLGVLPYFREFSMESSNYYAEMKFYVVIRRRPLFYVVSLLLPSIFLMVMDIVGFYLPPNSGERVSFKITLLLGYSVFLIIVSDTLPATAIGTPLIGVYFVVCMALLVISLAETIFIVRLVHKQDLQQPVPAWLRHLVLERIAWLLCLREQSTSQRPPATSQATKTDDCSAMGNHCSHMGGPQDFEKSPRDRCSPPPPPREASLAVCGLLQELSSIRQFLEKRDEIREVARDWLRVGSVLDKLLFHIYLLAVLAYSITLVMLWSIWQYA

Row | Compound | Ki (5-HT1A) [µM] | EC50 (r5-HT2A) [µM] | Emax (r5-HT2A) [%] | Ki (5-HT2A receptor [1]) [µM] | Ki (human 5-HT2C receptor [2]) [µM] | Ki (5-HT7; 5-HT7 affinity) [µM] | Ki (5-HT6) [µM] | Emax (r5-HT2C) [%] | Ki (5-HT1D) [µM] | Ki (5-ht1e) [µM] | Emax (h5-HT2B) [%] | Emax (h5-HT2C) [%] | EC50 (h5-HT2C) [µM] | Ki (5-ht5a) [µM] | Ki (5-HT1B) [µM] | EC50 (h5-HT2A) [µM] | Emax (h5-HT2A) [%] | Ki (5-HT2A receptor [3]) [µM] | Ki (human 5-HT2C receptor [4]) [µM] | Ki (5-HT2B; 5-HT2B affinity) [µM] | also measured
1 | COc1ccc(CNCCc2c[nH]c3ccc(OC)cc23)cc1 [Compound 5c, N-(4-Methoxybenzyl)-2-(5-methoxy-1H-indol-3-yl)ethan-1-amine] | 0.076 | 0.19 | 75 ± 1.3 | 0.0105 | 0.126 | 0.037 | 0.353 | 102 ± 2 | 0.161 | > 10 | 81 ± 1 | 112 ± 5 | 0.0751 | 2.39 | 1.06 | 0.042 | 84.1 ± 1.3 | 0.0692 | 0.0141 | 0.033 | Ki (5-HT7; 5-HT7 pKi ± SEM): 0.0363 µM; EC50 (r5-HT2C; r5-HT2C pEC50 ± SEM, Ca2+ mobilization): 0.0186 µM; EC50 (h5-HT2B; h5-HT2B pEC50 ± SEM, Ca2+ mobilization, NA = not active, Emax ≤ 15%): 0.0229 µM; activity in the HTR assay (active / inactive) (Male C57BL/6J mice; SC, doses up to 30 mg/kg): None of the phenethylamines or tryptamines with 4-substituted N-benzyl groups, 4b, 4e, 5c, or 5f, was active; Ki (5-HT2B; 5-HT2B pKi ± SEM): 0.0324 µM; Ki (5-HT3): > 10 µM
2 | COc1ccc2[nH]cc(CCNCc3cccc(Cl)c3)c2c1 [Compound 5h, N-(3-Chlorobenzyl)-2-(5-methoxy-1H-indol-3-yl)ethan-1-amine] | 0.195 | 0.083 | 70.1 ± 1 | 0.00105 | 0.0282 | 0.281 | 0.05 | 105 ± 2 | 0.282 | > 10 | ≤ 15 | 85 ± 6 | 0.316 | 2.31 | 4.39 | 0.014 | 81.2 ± 1.3 | 0.00525 | 0.00427 | 0.0066 | EC50 (r5-HT2C; r5-HT2C EC50, Ca2+ mobilization): 0.286 µM; EC50 (h5-HT2B; h5-HT2B EC50, Ca2+ mobilization): 0.05 µM; max counts (Male C57BL/6J mice; HTR counts, SC): 10.6; ED50 (Male C57BL/6J mice; Mus musculus, sc, read-out: ED50 mg/kg (95% CI), mouse head twitch): 4.43 mg/kg; magnitude of peak effect × vehicle (Male C57BL/6J mice; SC, mouse head twitch): 8.0 × vehicle; maximally effective dose (Male C57BL/6J mice; SC, mouse head twitch): 30 mg/kg; Ki (5-HT2B; 5-HT2B pKi ± SEM): 0.00692 µM; Ki (5-HT3): > 10 µM
